Data published in patent US8178668B2, “2-aminopyridine kinase inhibitors” (OSI Pharmaceuticals, LLC, priority 2008, dated 2012).
pIC50: −log10 of the molar value.

Columns and labels:
MET (human) = MET (human) (Homo sapiens, UniProt P08581); test: MET kinase AlphaScreen assay (Km of ATP); format: biochemical; settings: ATP at Km; at least duplicate experiments
In short: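 AlphaScreen detection with PT66 beads (1 h) follows a 60 min room-temperature MET reaction. Substrate is 200 ng/μL biotinylated poly(Glu,Tyr), with ATP set at an enzyme-optimized concentration. Buffer is HEPES pH 7.4 with MgCl2, MnCl2 and 0.334 mM vanadate, compounds at 1% DMSO.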

RON (human) = RON (human) (Homo sapiens, UniProt Q04912); test: RON kinase AlphaScreen assay (Km of ATP); format: biochemical; settings: ATP at Km; at least duplicate experiments
Chain of RON (human) (Q04912 25-1400): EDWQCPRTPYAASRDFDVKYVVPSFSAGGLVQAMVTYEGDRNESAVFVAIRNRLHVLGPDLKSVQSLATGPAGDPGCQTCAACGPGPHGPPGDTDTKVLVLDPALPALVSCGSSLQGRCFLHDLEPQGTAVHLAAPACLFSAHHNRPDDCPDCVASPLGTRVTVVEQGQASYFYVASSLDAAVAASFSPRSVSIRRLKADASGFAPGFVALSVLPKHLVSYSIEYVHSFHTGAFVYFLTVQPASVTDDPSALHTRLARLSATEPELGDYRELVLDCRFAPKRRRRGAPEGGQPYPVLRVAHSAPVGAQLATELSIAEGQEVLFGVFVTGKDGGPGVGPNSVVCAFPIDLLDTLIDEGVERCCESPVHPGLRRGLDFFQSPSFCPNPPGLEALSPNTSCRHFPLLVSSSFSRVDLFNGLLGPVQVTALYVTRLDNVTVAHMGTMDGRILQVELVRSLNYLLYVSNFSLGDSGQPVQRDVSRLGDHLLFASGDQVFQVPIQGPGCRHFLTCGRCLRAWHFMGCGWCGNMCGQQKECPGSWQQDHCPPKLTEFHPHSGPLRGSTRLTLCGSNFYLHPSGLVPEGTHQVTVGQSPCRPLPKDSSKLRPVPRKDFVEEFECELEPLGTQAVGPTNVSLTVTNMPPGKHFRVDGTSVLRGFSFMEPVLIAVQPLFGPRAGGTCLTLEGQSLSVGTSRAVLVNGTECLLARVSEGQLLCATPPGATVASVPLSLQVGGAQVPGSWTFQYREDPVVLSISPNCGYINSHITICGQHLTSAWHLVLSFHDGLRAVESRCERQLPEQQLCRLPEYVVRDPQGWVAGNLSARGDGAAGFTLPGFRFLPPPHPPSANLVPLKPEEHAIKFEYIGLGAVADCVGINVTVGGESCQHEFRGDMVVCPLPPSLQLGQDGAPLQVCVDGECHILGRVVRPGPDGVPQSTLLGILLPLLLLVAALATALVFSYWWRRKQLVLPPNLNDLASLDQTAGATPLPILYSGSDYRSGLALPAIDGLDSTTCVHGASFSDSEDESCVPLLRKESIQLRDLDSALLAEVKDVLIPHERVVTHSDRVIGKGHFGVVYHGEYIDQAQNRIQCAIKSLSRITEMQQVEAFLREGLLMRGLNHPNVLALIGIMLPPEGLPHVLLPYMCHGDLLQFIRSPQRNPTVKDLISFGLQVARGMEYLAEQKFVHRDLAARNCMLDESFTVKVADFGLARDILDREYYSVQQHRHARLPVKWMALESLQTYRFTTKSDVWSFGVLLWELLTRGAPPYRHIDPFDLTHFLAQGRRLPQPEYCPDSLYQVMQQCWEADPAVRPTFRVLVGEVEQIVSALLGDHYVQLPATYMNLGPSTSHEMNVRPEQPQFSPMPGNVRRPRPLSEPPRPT
In short: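 AlphaScreen with PT66 donor/acceptor beads, read after 1 h, detected phosphorylation of biotinylated poly(Glu,Tyr) by human RON. Enzyme-started reactions ran 30 min at room temperature with ATP at Km. Buffer was HEPES pH 7.4 with MgCl2, glycerol, vanadate and 1% DMSO.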

Chain of MET (human) (P08581 25-1390): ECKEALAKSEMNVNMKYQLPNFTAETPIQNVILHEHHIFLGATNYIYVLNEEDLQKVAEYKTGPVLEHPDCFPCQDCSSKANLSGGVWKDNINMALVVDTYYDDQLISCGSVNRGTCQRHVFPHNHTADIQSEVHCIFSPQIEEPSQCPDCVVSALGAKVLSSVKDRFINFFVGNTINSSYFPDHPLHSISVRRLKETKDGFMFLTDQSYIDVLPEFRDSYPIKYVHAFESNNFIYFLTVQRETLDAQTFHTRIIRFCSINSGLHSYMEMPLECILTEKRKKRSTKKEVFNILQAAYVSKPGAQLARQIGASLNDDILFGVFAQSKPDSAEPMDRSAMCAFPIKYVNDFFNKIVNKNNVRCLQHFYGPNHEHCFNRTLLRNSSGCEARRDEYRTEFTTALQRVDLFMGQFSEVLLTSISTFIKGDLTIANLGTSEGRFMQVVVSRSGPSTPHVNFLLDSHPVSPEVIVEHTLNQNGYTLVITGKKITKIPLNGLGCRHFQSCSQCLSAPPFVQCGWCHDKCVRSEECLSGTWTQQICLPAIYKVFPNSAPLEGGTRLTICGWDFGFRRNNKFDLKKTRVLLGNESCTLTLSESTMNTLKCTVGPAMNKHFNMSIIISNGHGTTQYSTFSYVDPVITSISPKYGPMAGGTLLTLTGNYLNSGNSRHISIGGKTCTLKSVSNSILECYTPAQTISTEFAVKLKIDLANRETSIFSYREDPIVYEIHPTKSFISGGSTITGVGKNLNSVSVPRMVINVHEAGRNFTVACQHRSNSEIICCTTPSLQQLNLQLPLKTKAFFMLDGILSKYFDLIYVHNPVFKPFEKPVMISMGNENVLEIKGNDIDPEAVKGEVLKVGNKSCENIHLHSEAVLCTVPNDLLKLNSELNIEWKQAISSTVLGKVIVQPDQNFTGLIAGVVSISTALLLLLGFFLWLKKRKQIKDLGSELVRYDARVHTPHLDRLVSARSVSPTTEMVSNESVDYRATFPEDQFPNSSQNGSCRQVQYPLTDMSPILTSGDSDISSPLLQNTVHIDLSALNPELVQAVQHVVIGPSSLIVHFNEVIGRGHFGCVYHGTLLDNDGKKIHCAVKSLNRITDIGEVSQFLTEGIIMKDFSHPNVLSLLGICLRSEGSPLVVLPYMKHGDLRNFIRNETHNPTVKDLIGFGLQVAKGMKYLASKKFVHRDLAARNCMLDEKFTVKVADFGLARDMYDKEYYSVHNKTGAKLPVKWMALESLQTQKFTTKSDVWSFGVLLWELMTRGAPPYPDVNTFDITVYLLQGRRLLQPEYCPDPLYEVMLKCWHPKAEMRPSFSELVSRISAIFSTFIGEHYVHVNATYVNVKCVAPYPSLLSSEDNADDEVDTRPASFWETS

Structure (SMILES)	pIC50 (MET (human))	pIC50 (RON (human))
Nc1ncc(-c2ccc(C(=O)N3CCCCC3)cc2)cc1-c1nc2ccccc2s1 [Example 195, [4-(6-Amino-5-benzothiazol-2-ylpyridin-3-yl)phenyl]piperidin-1-ylmethanone]	< 4.70	< 4.70
NC(=O)c1cccc(-c2cnc(N)c(-c3nc4ccccc4s3)c2)c1 [Example 196, 3-(6-Amino-5-benzothiazol-2-ylpyridin-3-yl)benzamide]	4.70 to 6.00	4.70 to 6.00
Nc1ncc(-c2cnn(CCN3CCOCC3)c2)cc1-c1nc2ccccc2s1 [Example 197, 3-Benzothiazol-2-yl-5-[1-(2-morpholin-4-ylethyl)-1H-pyrazol-4-yl]pyridin-2-ylamine]	4.70 to 6.00	4.70 to 6.00
Nc1ncc(-c2ccc(C(=O)NC3CC3)cc2)cc1-c1nc2ccccc2s1 [Example 198, 4-(6-Amino-5-benzothiazol-2-ylpyridin-3-yl)-N-cyclopropylbenzamide]	4.70 to 6.00	< 4.70
CNC(=O)c1ccc(-c2cnc(N)c(-c3nc4ccccc4s3)c2)cc1 [Example 199, 4-(6-Amino-5-benzothiazol-2-ylpyridin-3-yl)-N-methylbenzamide]	4.70 to 6.00	4.70 to 6.00
Nc1ncc(-c2ccc(C(=O)O)cc2)cc1-c1nc2ccccc2s1 [Example 201, 4-(6-Amino-5-benzothiazol-2-ylpyridin-3-yl)-benzoic acid]	4.70 to 6.00	4.70 to 6.00
Nc1ncc(-c2ccc(C(=O)O)nc2)cc1-c1nc2ccccc2s1 [Example 202, 6′-Amino-5′-benzothiazol-2-yl-[3,3′]bipyridinyl-6-carboxylic acid]	6.00 to 7.00	4.70 to 6.00
Nc1ncc(-c2cccc(C(=O)N3CCCC3)c2)cc1-c1nc2ccccc2s1 [Example 204, [3-(6-Amino-5-benzothiazol-2-ylpyridin-3-yl)phenyl]pyrrolidin-1-ylmethanone]	4.70 to 6.00	< 4.70
CC(=O)NCCNC(=O)c1cccc(-c2cnc(N)c(-c3nc4ccccc4s3)c2)c1 [Example 205, N-(2-Acetylaminoethyl)-3-(6-amino-5-benzothiazol-2-ylpyridin-3-yl)benzamide]	4.70 to 6.00	4.70 to 6.00
Nc1ncc(-c2cccc(C(=O)N3CCCCC3)c2)cc1-c1nc2ccccc2s1 [Example 206, [3-(6-Amino-5-benzothiazol-2-ylpyridin-3-yl)phenyl]piperidin-1-ylmethanone]	4.70 to 6.00	< 4.70
CCN(CC)CCNC(=O)c1cccc(-c2cnc(N)c(-c3nc4ccccc4s3)c2)c1 [Example 207, 3-(6-Amino-5-benzothiazol-2-ylpyridin-3-yl)-N-(2-diethylaminoethyl)benzamide]	4.70 to 6.00	4.70 to 6.00
C[C@@H]1CN(C(=O)c2cccc(-c3cnc(N)c(-c4nc5ccccc5s4)c3)c2)C[C@H](C)N1 [Example 208, [3-(6-Amino-5-benzothiazol-2-ylpyridin-3-yl)phenyl]-(cis-3,5-dimethylpiperazin-1-yl)methanone]	6.00 to 7.00	4.70 to 6.00
Nc1ncc(-c2cccc(C(=O)NCCCN3CCCC3)c2)cc1-c1nc2ccccc2s1 [Example 209, 3-(6-Amino-5-benzothiazol-2-ylpyridin-3-yl)-N-(3-pyrrolidin-1-ylpropyl)benzamide]	4.70 to 6.00	4.70 to 6.00
CN1CCC(N(C)C(=O)c2cccc(-c3cnc(N)c(-c4nc5ccccc5s4)c3)c2)CC1 [Example 210, 3-(6-Amino-5-benzothiazol-2-ylpyridin-3-yl)-N-methyl-N-(1-methylpiperidin-4-yl)benzamide]	6.00 to 7.00	4.70 to 6.00
Nc1ncc(-c2cccc(C(=O)N3CCN(CC(=O)N4CCCC4)CC3)c2)cc1-c1nc2ccccc2s1 [Example 211, 2-{4-[3-(6-Amino-5-benzothiazol-2-ylpyridin-3-yl)benzoyl]piperazin-1-pyrrolidin-1-yl}-1-ylethanone]	4.70 to 6.00	4.70 to 6.00
CC(=O)N1CCN(C(=O)c2cccc(-c3cnc(N)c(-c4nc5ccccc5s4)c3)c2)CC1 [Example 212, 1-{4-[3-(6-Amino-5-benzothiazol-2-ylpyridin-3-yl)benzoyl]piperazin-1-yl}ethanone]	4.70 to 6.00	< 4.70
Nc1ncc(-c2cccc(C(=O)N3CCCC(O)C3)c2)cc1-c1nc2ccccc2s1 (stereo not shown) [Example 213, [3-(6-Amino-5-benzothiazol-2-ylpyridin-3-yl)phenyl]-(3-hydroxypiperidin-1-yl)methanone]	4.70 to 6.00	4.70 to 6.00
C[C@@H]1CN(C(=O)c2cccc(-c3cnc(N)c(-c4nc5ccccc5s4)c3)c2)C[C@H](C)O1 [Example 214, [3-(6-Amino-5-benzothiazol-2-ylpyridin-3-yl)phenyl]-(cis-2,6-dimethylmorpholin-4-yl)methanone]	4.70 to 6.00	< 4.70

Structure (SMILES)	pIC50 (MET (human))	pIC50 (RON (human))
CN(C)C(=O)CN1CCN(C(=O)c2cccc(-c3cnc(N)c(-c4nc5ccccc5s4)c3)c2)CC1 [Example 215, 2-{4-[3-(6-Amino-5-benzothiazol-2-ylpyridin-3-yl)benzoyl]piperazin-1-yl}-N,N-dimethylacetamide]	4.70 to 6.00	4.70 to 6.00
COCCN(CCOC)C(=O)c1cccc(-c2cnc(N)c(-c3nc4ccccc4s3)c2)c1 [Example 216, 3-(6-Amino-5-benzothiazol-2-ylpyridin-3-yl)-N,N-bis-(2-methoxyethyl)benzamide]	< 4.70	< 4.70
Nc1ncc(-c2cccc(C(=O)N3CCC(N4CCCC4)CC3)c2)cc1-c1nc2ccccc2s1 [Example 217, [3-(6-Amino-5-benzothiazol-2-ylpyridin-3-yl)phenyl]-(4-pyrrolidin-1-ylpiperidin-1-yl)methanone]	6.00 to 7.00	4.70 to 6.00
CN1CCC(NC(=O)c2cccc(-c3cnc(N)c(-c4nc5ccccc5s4)c3)c2)CC1 [Example 218, 3-(6-Amino-5-benzothiazol-2-ylpyridin-3-yl)-N-(1-methylpiperidin-4-yl)benzamide]	6.00 to 7.00	4.70 to 6.00
NC(=O)C1CCN(C(=O)c2cccc(-c3cnc(N)c(-c4nc5ccccc5s4)c3)c2)CC1 [Example 219, 1-[3-(6-Amino-5-benzothiazol-2-ylpyridin-3-yl)benzoyl]piperidine-4-carboxylic acid amide]	6.00 to 7.00	< 4.70
CN(C)CCN(C)C(=O)c1cccc(-c2cnc(N)c(-c3nc4ccccc4s3)c2)c1 [Example 220, 3-(6-Amino-5-benzothiazol-2-ylpyridin-3-yl)-N-(2-dimethylaminoethyl)-N-methylbenzamide]	6.00 to 7.00	4.70 to 6.00
Nc1ncc(-c2cccc(C(=O)N[C@H]3CCCC[C@@H]3O)c2)cc1-c1nc2ccccc2s1 [Example 221, 3-(6-Amino-5-benzothiazol-2-ylpyridin-3-yl)-N-((1S,2S)-2-hydroxycyclohexyl)benzamide]	4.70 to 6.00	4.70 to 6.00
Nc1ncc(-c2cccc(C(=O)N3CCC(O)C3)c2)cc1-c1nc2ccccc2s1 (stereo not shown) [Example 222, [3-(6-Amino-5-benzothiazol-2-ylpyridin-3-yl)phenyl]-(3-hydroxypyrrolidin-1-yl)methanone]	4.70 to 6.00	4.70 to 6.00
Nc1ncc(-c2cccc(C(=O)NCCCn3ccnc3)c2)cc1-c1nc2ccccc2s1 [Example 223, 3-(6-Amino-5-benzothiazol-2-ylpyridin-3-yl)-N-(3-imidazol-1-ylpropyl)benzamide]	4.70 to 6.00	4.70 to 6.00
CN(C)C1CCN(C(=O)c2cccc(-c3cnc(N)c(-c4nc5ccccc5s4)c3)c2)C1 (stereo not shown) [Example 224, [3-(6-Amino-5-benzothiazol-2-ylpyridin-3-yl)phenyl]-(3-dimethylaminopyrrolidin-1-yl)methanone]	6.00 to 7.00	4.70 to 6.00
Nc1ncc(-c2cccc(C(=O)NCCCN3CCOCC3)c2)cc1-c1nc2ccccc2s1 [Example 225, 3-(6-Amino-5-benzothiazol-2-ylpyridin-3-yl)-N-(3-morpholin-4-ylpropyl)benzamide]	4.70 to 6.00	4.70 to 6.00
CN1CCCN(C(=O)c2cccc(-c3cnc(N)c(-c4nc5ccccc5s4)c3)c2)CC1 [Example 226, [3-(6-Amino-5-benzothiazol-2-ylpyridin-3-yl)phenyl]-(4-methyl-[1,4]diazepan-1-yl)methanone]	6.00 to 7.00	4.70 to 6.00
Nc1ncc(-c2cccc(C(=O)N3CCC(F)(F)C3)c2)cc1-c1nc2ccccc2s1 [Example 227, [3-(6-Amino-5-benzothiazol-2-ylpyridin-3-yl)phenyl]-(3,3-difluoropyrrolidin-1-yl)methanone]	4.70 to 6.00	4.70 to 6.00
C[C@@H]1CN(C(=O)c2cccc(-c3cnc(N)c(-c4nc5ccccc5s4)c3)c2)C[C@H](C)N1C [Example 228, [3-(6-Amino-5-benzothiazol-2-ylpyridin-3-yl)phenyl]-(cis-3,4,5-trimethylpiperazin-1-yl)methanone]	6.00 to 7.00	4.70 to 6.00
Nc1ncc(-c2cc3ccccc3[nH]2)cc1-c1nc2ccccc2s1 [Example 229, 3-(1,3-Benzothiazol-2-yl)-5-(1H-indol-2-yl)pyridin-2-amine]	4.70 to 6.00	4.70 to 6.00
Nc1ncc(-c2ccc[nH]2)cc1-c1nc2ccccc2s1 [Example 230, 3-(1,3-Benzothiazol-2-yl)-5-(1H-pyrrol-2-yl)pyridin-2-amine]	4.70 to 6.00	4.70 to 6.00
CS(=O)(=O)Nc1ccc(-c2cnc(N)c(-c3nc4ccccc4s3)c2)cc1 [Example 231, N-4-[6-Amino-5-(1,3-benzothiazol-2-yl)pyridin-3-yl]phenylmethanesulfonamide]	4.70 to 6.00	4.70 to 6.00
